# In patent US12065436B2, “Cardiac sarcomere inhibitors” (Cytokinetics, Inc., priority 2018, dated 2024):
# Read-outs that look alike come from different tables or passages of the source.
# What was measured:
# [1] = target: bovine cardiac myofibrils (full-length cardiac myosin ATPase in the native sarcomere) (Bos taurus (Bovine), UniProt Q9BE39); experiment: Skinned bovine cardiac myofibril ATPase assay (PK/LDH-coupled); assay type: biochemical; details: Ca2+ activating to 75% of maximal rate; for CDMF75 IC15: concentration giving 15% inhibition; for IC50: read-out: CDMF75 IC50
# How it was run: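 Triton-skinned bovine left-ventricle myofibrils (1 mg/mL) in PM 12 buffer (12 mM PIPES, 2 mM MgCl2, pH 6.8) with 50 μM ATP, 0.6 mM EGTA and CaCl2 set for 50% or 75% activation. Steady-state ATPase inhibition followed by PK/LDH-coupled NADH oxidation at 340 nm.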
# [2] = test system: rat cardiac contractility (left ventricle fractional shortening); experiment: Echocardiography of acute effect on rat cardiac contractility, continuous IV infusion; assay type: in vivo, Sprague Dawley rats; details: plasma concentration at which fractional shortening is 50% of pre-dose baseline, estimated, read-out: IC50 (Mean ± S.D.)
# Procedure: (§1) Assessment of in vivo cardiac function by echocardiography was performed in male Sprague Dawley rats under isoflurane (1-3%) anesthesia. 2-D M-mode images of the left ventricle were acquired in the parasternal long-axis view before, during, and after administration of compounds by continuous IV infusion or oral gavage. In vivo fractional shortening was determined by M-mode image analysis with the following calculation: ((End diastolic diameter−end systolic diameter)/end diastolic diameter×100). For continuous IV infusion experiments, three pre-dose baseline M-mode images were taken at 1 minute intervals prior to infusion of compound. Compounds were formulated in 50% Propylene Glycol (PG): 16% Captisol: 10% dimethylacetamide (DMA) and delivered via a jugular vein catheter at the rate of 1 mL/kg/h. During infusion, M-mode images were taken at 5 minute intervals. The infusion stopped when fractional shortening reached up to a 60% reduction from baseline. Blood samples were taken to determine the plasma concentration of the compounds. Data was reported as an estimated IC50 value, which is the concentration at which fractional shortening is 50% of the pre-dose baseline contractility.
# [3] = test system: rat cardiac contractility (left ventricle fractional shortening); experiment: Echocardiography of acute effect on rat cardiac contractility, oral gavage; assay type: in vivo, Sprague Dawley rats; details: for inhibition in vivo at 2 mg/kg / IC50 / inhibition in vivo at 8 mg/kg / inhibition in vivo at 6 mg/kg / inhibition in vivo at 4 mg/kg: Rattus norvegicus; for inhibition in vivo at 2 mg/kg / inhibition in vivo at 8 mg/kg / inhibition in vivo at 6 mg/kg / inhibition in vivo at 4 mg/kg: oral gavage; for IC50 / IC10: oral dosing, estimated; for IC50: plasma concentration at which fractional shortening is 50% of pre-dose baseline; for IC10: plasma concentration at which
# Procedure: as §1
# For oral dosing studies, three pre-dose baseline M-Mode images were taken at 1 minute intervals prior to compound administration. Compounds were formulated in a 0.5% hydroxypropyl methylcellulose 2910 (HPMC 2910): 0.1% Tween 80 suspension and delivered as a single dose (5 mL/kg) by oral gavage. Rats were lightly anesthetized for M-Mode echocardiography measurements at select time points over a 24 hour period. Different dose levels were evaluated for each compound. The compound effect on cardiac fractional shortening at the highest dose evaluated is presented in Table D as a percent reduction of baseline fractional shortening (=100%).
# Concurrent with echocardiography measurements, blood samples were taken to determine the corresponding compound plasma concentration.
# [4] = 1 h, 1-2 h post dose, read-out: FS (% reduction from baseline) at 1-2 h post dose (Mean ± S.D.)
# [5] = 4 h post dose, read-out: FS (% reduction from baseline) at 4 h post dose (Mean ± S.D.)
# Chain of bovine cardiac myofibrils (full-length cardiac myosin ATPase in the native sarcomere) (Q9BE39 whole entry): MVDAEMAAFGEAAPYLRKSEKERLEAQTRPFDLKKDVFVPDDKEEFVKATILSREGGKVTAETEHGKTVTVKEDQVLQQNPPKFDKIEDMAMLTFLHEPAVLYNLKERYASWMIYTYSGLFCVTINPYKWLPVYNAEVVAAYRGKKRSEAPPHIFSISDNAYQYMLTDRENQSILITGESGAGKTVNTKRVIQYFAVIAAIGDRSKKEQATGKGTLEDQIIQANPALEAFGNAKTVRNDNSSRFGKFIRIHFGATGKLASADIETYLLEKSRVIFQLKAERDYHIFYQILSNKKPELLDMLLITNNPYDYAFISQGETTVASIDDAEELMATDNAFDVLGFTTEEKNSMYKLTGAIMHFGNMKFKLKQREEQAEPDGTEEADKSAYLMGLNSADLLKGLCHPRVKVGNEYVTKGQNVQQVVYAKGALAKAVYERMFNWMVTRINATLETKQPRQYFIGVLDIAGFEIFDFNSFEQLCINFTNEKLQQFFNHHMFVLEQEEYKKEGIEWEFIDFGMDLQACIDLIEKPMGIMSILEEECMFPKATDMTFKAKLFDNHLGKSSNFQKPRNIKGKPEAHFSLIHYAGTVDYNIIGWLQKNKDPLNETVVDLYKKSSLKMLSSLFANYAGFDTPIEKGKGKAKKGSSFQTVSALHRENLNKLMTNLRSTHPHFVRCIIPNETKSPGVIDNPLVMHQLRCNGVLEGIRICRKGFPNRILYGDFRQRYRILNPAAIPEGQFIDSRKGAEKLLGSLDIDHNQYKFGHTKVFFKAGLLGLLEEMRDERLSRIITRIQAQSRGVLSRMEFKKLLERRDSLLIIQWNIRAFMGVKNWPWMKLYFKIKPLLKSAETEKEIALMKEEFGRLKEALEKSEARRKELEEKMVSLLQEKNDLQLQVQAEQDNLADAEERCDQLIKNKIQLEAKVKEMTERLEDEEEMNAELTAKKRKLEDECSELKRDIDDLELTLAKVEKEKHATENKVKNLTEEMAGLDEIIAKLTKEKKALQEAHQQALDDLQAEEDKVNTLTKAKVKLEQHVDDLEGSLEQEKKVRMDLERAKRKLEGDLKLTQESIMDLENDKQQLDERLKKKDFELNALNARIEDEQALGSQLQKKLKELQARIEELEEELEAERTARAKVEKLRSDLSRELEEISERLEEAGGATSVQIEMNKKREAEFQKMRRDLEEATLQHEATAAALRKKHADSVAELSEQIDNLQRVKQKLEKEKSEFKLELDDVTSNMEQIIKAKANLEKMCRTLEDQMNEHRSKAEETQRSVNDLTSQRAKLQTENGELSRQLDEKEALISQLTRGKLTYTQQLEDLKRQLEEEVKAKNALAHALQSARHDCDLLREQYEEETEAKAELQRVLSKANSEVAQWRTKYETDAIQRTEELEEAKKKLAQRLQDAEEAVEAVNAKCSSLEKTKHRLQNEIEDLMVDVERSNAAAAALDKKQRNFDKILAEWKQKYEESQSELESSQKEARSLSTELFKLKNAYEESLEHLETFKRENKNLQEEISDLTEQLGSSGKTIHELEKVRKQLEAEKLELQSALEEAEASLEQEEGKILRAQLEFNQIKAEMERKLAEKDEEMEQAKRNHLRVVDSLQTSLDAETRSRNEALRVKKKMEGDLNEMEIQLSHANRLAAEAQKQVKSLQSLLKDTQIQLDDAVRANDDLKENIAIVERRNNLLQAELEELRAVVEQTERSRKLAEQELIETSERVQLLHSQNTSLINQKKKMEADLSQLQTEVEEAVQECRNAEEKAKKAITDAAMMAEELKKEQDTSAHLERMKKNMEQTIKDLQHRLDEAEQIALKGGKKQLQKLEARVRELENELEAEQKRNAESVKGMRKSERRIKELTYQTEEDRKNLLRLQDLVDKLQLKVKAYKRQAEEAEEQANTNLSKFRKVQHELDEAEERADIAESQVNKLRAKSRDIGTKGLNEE
# Chain of bovine cardiac myofibrils (full-length cardiac myosin ATPase in the native sarcomere) (P85100 whole entry partner): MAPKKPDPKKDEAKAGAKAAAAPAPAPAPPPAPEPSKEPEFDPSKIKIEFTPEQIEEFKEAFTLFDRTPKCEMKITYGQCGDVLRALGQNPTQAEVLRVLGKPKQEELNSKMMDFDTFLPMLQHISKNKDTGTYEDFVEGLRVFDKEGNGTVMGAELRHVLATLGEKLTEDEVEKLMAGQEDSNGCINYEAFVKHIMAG
# Chain of bovine cardiac myofibrils (full-length cardiac myosin ATPase in the native sarcomere) (Q3SZE5 whole entry partner): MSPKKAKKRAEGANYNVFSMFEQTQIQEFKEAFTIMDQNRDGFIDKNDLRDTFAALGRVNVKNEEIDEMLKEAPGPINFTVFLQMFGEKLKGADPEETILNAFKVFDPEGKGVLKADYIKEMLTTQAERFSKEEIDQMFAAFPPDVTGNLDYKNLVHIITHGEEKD
CDMF75 IC15 [1],IC50 [1],IC50 ([2]; Rattus norvegicus),IC50 [3],Compound,IC10 [3],also measured
300 nM,1000 nM,5700 ± 310 nM,4900 nM,"CCc1nc(-c2ccc3c(c2)OC[C@H]3NC(=O)c2cnn(C)c2)no1 [Compound 238, (S)—N-(6-(5-ethyl-1,2,4-oxadiazol-3-yl)-2,3-dihydrobenzofuran-3-yl)-1-methyl-1H-pyrazole-4-carboxamide]",900 nM,"inhibition in vivo at 2 mg/kg [3, 4]: 52 ± 10%; inhibition in vivo at 2 mg/kg [3, 5]: 59 ± 6%"
300 nM,1000 nM,1100 ± 30 nM,,"Cn1nccc1C(=O)N[C@@H]1COc2cc(-c3noc(C4CC4)n3)ccc21 [Compound 222, (S)—N-(6-(5-cyclopropyl-1,2,4-oxadiazol-3-yl)-2,3-dihydrobenzofuran-3-yl)-1-methyl-1H-pyrazole-5-carboxamide]",,
1200 nM,4100 nM,,4700 nM,"COCc1nc(-c2ccc3c(c2)CC[C@H]3NC(=O)c2ccnc(CO)c2)no1 [Compound 727, (R)-2-(hydroxymethyl)-N-(5-(5-(methoxymethyl)-1,2,4-oxadiazol-3-yl)-2,3-dihydro-1H-inden-1-yl)isonicotinamide]",1200 nM,"inhibition in vivo at 8 mg/kg [3, 4]: 63 ± 1%; inhibition in vivo at 8 mg/kg [3, 5]: 33 ± 1%"
500 nM,1900 nM,,3300 nM,"O=C(N[C@@H]1CCc2cc(-c3noc(C(F)F)n3)ccc21)c1ccnc(CO)c1 [Compound 664, (R)-N-(5-(5-(difluoromethyl)-1,2,4-oxadiazol-3-yl)-2,3-dihydro-1H-inden-1-yl)-2-(hydroxymethyl)isonicotinamide]",1200 nM,"inhibition in vivo at 6 mg/kg [3, 4]: 65 ± 4%; inhibition in vivo at 6 mg/kg [3, 5]: 38 ± 5%"
300 nM,900 nM,1500 ± 50 nM,,"Cn1nnc(C(=O)N[C@@H]2CCc3cc(-c4noc(C5CC5)n4)ccc32)n1 [Compound 141, (R)—N-(5-(5-cyclopropyl-1,2,4-oxadiazol-3-yl)-2,3-dihydro-1H-inden-1-yl)-2-methyl-2H-tetrazole-5-carboxamide]",,
600 nM,2200 nM,4600 ± 170 nM,,"CCc1cc(-c2ccc3c(c2)OC[C@H]3NC(=O)c2nnn(C)n2)no1 [Compound 365, (S)-N-(6-(5-ethylisoxazol-3-yl)-2,3-dihydrobenzofuran-3-yl)-2-methyl-2H-tetrazole-5-carboxamide]",,
500 nM,1800 nM,11400 ± 600 nM,,"Cn1cc(C(=O)N[C@@H]2COc3cc(-c4noc(C5CC5)n4)ccc32)cn1 [Compound 236, (S)—N-(6-(5-cyclopropyl-1,2,4-oxadiazol-3-yl)-2,3-dihydrobenzofuran-3-yl)-1-methyl-1H-pyrazole-4-carboxamide]",,
700 nM,2800 nM,1100 ± 30 nM,,"Cc1nc(-c2ccc3c(c2)OC[C@H]3NC(=O)c2cn(C)nc2C)no1 [Compound 158, (S)-1,3-dimethyl-N-(6-(5-methyl-1,2,4-oxadiazol-3-yl)-2,3-dihydrobenzofuran-3-yl)-1H-pyrazole-4-carboxamide]",,
600 nM,2300 nM,3400 ± 120 nM,,"COCc1nc(-c2ccc3c(c2)CC[C@H]3NC(=O)c2nnn(C)n2)no1 [Compound 144, (R)-N-(5-(5-(methoxymethyl)-1,2,4-oxadiazol-3-yl)-2,3-dihydro-1H-inden-1-yl)-2-methyl-2H-tetrazole-5-carboxamide]",,
200 nM,700 nM,1700 ± 60 nM,,"CCc1nc(-c2ccc3c(c2)CC[C@H]3NC(=O)OC)no1 [Compound 304, methyl (R)-(5-(5-ethyl-1,2,4-oxadiazol-3-yl)-2,3-dihydro-1H-inden-1-yl)carbamate]",,
900 nM,2800 nM,5400 ± 100 nM,,"Cc1ncc(C(=O)N[C@@H]2CCc3cc(-c4noc(C5CC5)n4)ccc32)o1 [Compound 388, (R)-N-(5-(5-cyclopropyl-1,2,4-oxadiazol-3-yl)-2,3-dihydro-1H-inden-1-yl)-2-methyloxazole-5-carboxamide]",,
700 nM,2400 nM,9300 ± 150 nM,,"Cc1cc(-c2ccc3c(c2)OC[C@H]3NC(=O)c2cn[nH]c2C)no1 [Compound 434, (S)-5-methyl-N-(6-(5-methylisoxazol-3-yl)-2,3-dihydrobenzofuran-3-yl)-1H-pyrazole-4-carboxamide]",,
400 nM,1400 nM,2100 ± 50 nM,,"Cc1n[nH]cc1C(=O)N[C@@H]1CCc2cc(-c3noc(C4CC4)n3)ccc21 [Compound 420, (R)-N-(5-(5-cyclopropyl-1,2,4-oxadiazol-3-yl)-2,3-dihydro-1H-inden-1-yl)-3-methyl-1H-pyrazole-4-carboxamide]",,
300 nM,1100 nM,,37000 nM,"CCc1nc(-c2ccc3c(c2)CC[C@H]3NC(=O)c2cc(C)no2)no1 [Compound 565, (R)-N-(5-(5-ethyl-1,2,4-oxadiazol-3-yl)-2,3-dihydro-1H-inden-1-yl)-3-methylisoxazole-5-carboxamide]",11000 nM,"inhibition in vivo at 8 mg/kg [3, 4]: 55 ± 13%; inhibition in vivo at 8 mg/kg [3, 5]: 43 ± 13%"
700 nM,3300 nM,,,"(R)—N-(7-(5-ethyl-1,2,4-oxadiazol-3-yl)chroman-4-yl)-1-methyl-1H-pyrazole-5-carboxamide [Compound 538]",,IC50 [2]: 10900 ± 370 nM
400 nM,1300 nM,,700 nM,"CCc1nc(-c2ccc3c(c2)CC[C@H]3NC(=O)c2ccnc(CO)c2)no1 [Compound 577, (R)-N-(5-(5-ethyl-1,2,4-oxadiazol-3-yl)-2,3-dihydro-1H-inden-1-yl)-2-(hydroxymethyl)isonicotinamide]",100 nM,"inhibition in vivo at 4 mg/kg [3, 4]: 67 ± 6%; inhibition in vivo at 4 mg/kg [3, 5]: 34 ± 11%"
300 nM,1200 nM,,1200 nM,"CCc1nc(-c2ccc3c(c2)CC[C@H]3NC(=O)c2nnc(C)o2)no1 [Compound 617, (R)-N-(5-(5-ethyl-1,2,4-oxadiazol-3-yl)-2,3-dihydro-1H-inden-1-yl)-5-methyl-1,3,4-oxadiazole-2-carboxamide]",300 nM,"inhibition in vivo at 6 mg/kg [3, 4]: 64 ± 4%; inhibition in vivo at 6 mg/kg [3, 5]: 37 ± 7%"
800 nM,2800 nM,5400 ± 250 nM,,"Cc1nc(-c2ccc3c(c2)OC[C@H]3NC(=O)c2cnn(C)c2)no1 [Compound 211, (S)-1-methyl-N-(6-(5-methyl-1,2,4-oxadiazol-3-yl)-2,3-dihydrobenzofuran-3-yl)-1H-pyrazole-4-carboxamide]",,
700 nM,2300 nM,,1600 nM,"CCc1nc(-c2ccc3c(c2)CC[C@H]3NC(=O)c2ccc(=O)n(C)c2)no1 [Compound 589, (R)-N-(5-(5-ethyl-1,2,4-oxadiazol-3-yl)-2,3-dihydro-1H-inden-1-yl)-1-methyl-6-oxo-1,6-dihydropyridine-3-carboxamide]",300 nM,"inhibition in vivo at 6 mg/kg [3, 4]: 73 ± 12%; inhibition in vivo at 6 mg/kg [3, 5]: 46 ± 3%"
300 nM,900 nM,4300 ± 110 nM,,"CCc1cc(-c2ccc3c(c2)OC[C@H]3NC(=O)c2cn[nH]c2C)no1 [Compound 433, (S)—N-(6-(5-ethylisoxazol-3-yl)-2,3-dihydrobenzofuran-3-yl)-5-methyl-1H-pyrazole-4-carboxamide]",,
